# According to patent publication US9725490B2, “ERAP1-derived peptide and use thereof” (TOKUSHIMA UNIVERSITY, priority 2011, dated 2017):
# Columns and labels:
# PHB2/REA phosphorylation = experiment: Phosphorylation of PHB2 bound to ERα, nuclear fraction; format: cell-based, human; settings: MCF-7, 5 μM peptide, 1 μM E2 24 hours
# Description: FIG. 22 is a diagram illustrating that phosphorylation of PHB2 serine regulates the transcriptional activity of ERα. […] MCF-7 cells and HCC1395 cells were treated with 5 μM ERAP1-peptide. Then, immediately, the cells were stimulated with 1 μM E2 for 24 hours. Then, the nuclear fraction of each cell was immunoprecipitated with anti-ERα antibody. Furthermore, with respect to the obtained sample, immunoblotting analysis was performed using the antibodies shown in the figure and the phosphorylation antibody. […] COS-7 cells temporarily transfected with PHB2 (or PHB2 mutation vectors, S39A and S39G), ERα, ERE-luciferase vector, and each plasmid of pRL-TK as an internal standard were stimulated with 1 μM E2 for 48 hours.
# MCF-7 cells and HCC1395 cells were treated with 5 μM ERAP1-peptide. Then, immediately the cells were stimulated with 1 μM E2 for 24 hours. Then, the nuclear fraction was isolated from the cells of each treatment. The nuclear fraction was precleaned at 4° C. for 3 hours using Normal IgG and rec-Protein G Sepharose 4B (Zymed, San Francisco, Calif., USA), and centrifuged, and then the supernatant was incubated in the presence of an anti-ERα antibody at 4° C. for 6 hours. Then, the supernatant was added with rec-Protein G Sepharose 4B and incubated at 4° C. for 1 hour to precipitate a antigen-antibody complex. […]
# [1] = test system: estrogen-dependent gene expression in MCF-7 cells; experiment: Microarray transcriptome analysis, MCF-7; format: cell-based, human; settings: for Fold change: E2 alone/E2 + peptide
# Description: MCF-7 cells were treated with 10 μM ERAP1-peptide (Peptide) and the ERAP1-scramble peptide (scrPeptide). Then, immediately, the cells were stimulated with 10 nM E2 for 1 hour. Subsequently, the obtained cell lysate solution was digested with trypsin and subjected to 2DICAL. […] MCF-7 cells were treated with 10 μM ERAP1-peptide. Then, immediately, the cells were stimulated with 10 nM E2 for 5, 10 and 15 hours. Then, RNA extraction and then Cy3-cRNA synthesis were performed, and the Cy3-cRNA was subjected to the microarray. The data were statistically analyzed by GeneSpring software, and the ratio to the value at 0 hour was calculated. **P<0.01.
# MCF-7 cells were treated with 10 μM ERAP1-peptide. Then, immediately the cells were stimulated with 10 nM E2. Then, RNA extraction was performed. Cy3 labeled cRNA was synthesized with Low Input Quick Amp Labeling Kit (Agilent Technologies, Loveland, Colo., USA) and hybridized with a custom microarray at 65° C. for 17 hours. The microarray was washed. Then, the product hybridized was measured with a microarray scanner (Agilent). The results thereof were digitized with Future Extraction software (Agilent). The data were statistically analyzed with GeneSpring software (Agilent), and the ratio to the value at 0 hour was calculated.
structure (smiles),measurement,setting,value
CSCC[C@H](NC(=O)[C@H](CCC(N)=O)NC(=O)[C@H](CCCNC(=N)N)NC(=O)[C@H](CCCNC(=N)N)NC(=O)[C@H](CCCNC(=N)N)NC(=O)[C@H](CCCNC(=N)N)NC(=O)[C@H](CCCNC(=N)N)NC(=O)[C@H](CCCNC(=N)N)NC(=O)[C@H](CCCNC(=N)N)NC(=O)[C@H](CCCNC(=N)N)NC(=O)[C@H](CCCNC(=N)N)NC(=O)[C@H](CCCNC(=N)N)NC(=O)[C@@H](N)CCCNC(=N)N)C(=O)N[C@@H](CC(C)C)C(=O)N[C@@H](CO)C(=O)N[C@@H](CC(=O)O)C(=O)N[C@@H](CC(C)C)C(=O)N[C@H](C(=O)N[C@@H](CC(C)C)C(=O)N[C@@H](CCC(N)=O)C(=O)N[C@@H](CC(C)C)C(=O)N[C@@H](CCCNC(=N)N)C(=O)N[C@@H](CCC(N)=O)C(=O)N[C@@H](CCCNC(=N)N)C(=O)O)[C@@H](C)O [ERAP1-peptide],phosphorylation of PHB2/REA bound to ERα in the nucleus,PHB2/REA phosphorylation,phosphorylations of the tyrosine and serine residues in the binding-recognized PHB2/REA were recognized
same,change of mRNA expressions,"[1]; 10 μM, 10 nM E2, versus E2",decreased significantly and genome-widely
same,Fold change,[1]; gene ADCY1,5.92
same,Fold change,[1]; gene AKR1C1,7.79
same,Fold change,[1]; gene AKR1C3,6.37
same,Fold change,[1]; gene AKR1C4,6.00
same,Fold change,[1]; gene ANKS6,9.00
same,Fold change,[1]; gene ARHGAP36,7.08
same,Fold change,[1]; gene BASP1,8.01
same,Fold change,[1]; gene BCAS3,5.92
same,Fold change,[1]; gene BMP5,7.72
same,Fold change,[1]; gene BMP7,8.40
same,Fold change,[1]; gene BTG3,9.06
same,Fold change,[1]; gene C1orf59,8.43
same,Fold change,[1]; gene C6orf150,5.95
same,Fold change,[1]; gene C13orf18,5.79
same,Fold change,[1]; gene CA2,9.87
same,Fold change,[1]; gene CALB2,6.05
same,Fold change,[1]; gene CALHM2,8.63
same,Fold change,[1]; gene CALML5,6.39
same,Fold change,[1]; gene CAV1,7.44
same,Fold change,[1]; gene CAV2,6.63
same,Fold change,[1]; gene CCDC83,6.76
same,Fold change,[1]; gene CEACAM5,6.84
same,Fold change,[1]; gene CMTM3,7.06
same,Fold change,[1]; gene CNKSR3,6.27
same,Fold change,[1]; gene CTNND2,6.83
same,Fold change,[1]; gene CXCR7,10.15
same,Fold change,[1]; gene CYBA,9.51
same,Fold change,[1]; gene DCLK1,7.84
same,Fold change,[1]; gene DDX43,8.53
same,Fold change,[1]; gene DPYSL5,5.76
same,Fold change,[1]; gene ECHDC1,7.73
same,Fold change,[1]; gene ELOVL2,7.14
same,Fold change,[1]; gene FABP5,6.38
same,Fold change,[1]; gene FAM189A2,6.33
same,Fold change,[1]; gene FZD6,7.54
same,Fold change,[1]; gene GPER,7.51
same,Fold change,[1]; gene GSTT1,7.93
same,Fold change,[1]; gene HAR1B,7.11
same,Fold change,[1]; gene HMCN1,7.54
same,Fold change,[1]; gene HPDL,7.68
same,Fold change,[1]; gene KCNJ3,8.31
same,Fold change,[1]; gene KCNJ8,6.44
same,Fold change,[1]; gene KCNQ1OT1,6.60
same,Fold change,[1]; gene KIF1A,7.12
same,Fold change,[1]; gene KLK6,5.98
same,Fold change,[1]; gene KLK11,8.08
same,Fold change,[1]; gene LOC389332,6.52
same,Fold change,[1]; gene LOC654433,6.72
same,Fold change,[1]; gene LOC732272,7.09
same,Fold change,[1]; gene LOC100508679,9.85
same,Fold change,[1]; gene LPIN2,6.27
same,Fold change,[1]; gene LRRC10B,7.17
same,Fold change,[1]; gene LXN,11.09
same,Fold change,[1]; gene LYPD1,6.66
same,Fold change,[1]; gene MAGED4B,6.80
same,Fold change,[1]; gene MALL,6.05
same,Fold change,[1]; gene MARCKS,6.99
same,Fold change,[1]; gene ME1,6.91
same,Fold change,[1]; gene MEST,8.84
same,Fold change,[1]; gene MUCL1,6.13
same,Fold change,[1]; gene NCRNA00052,7.27
same,Fold change,[1]; gene NUP210L,7.84
same,Fold change,[1]; gene OOEP,6.57
same,Fold change,[1]; gene PCDH10,5.78
same,Fold change,[1]; gene PDGFRL,5.77
same,Fold change,[1]; gene PM20D2,6.56
same,Fold change,[1]; gene PMP22,5.93
same,Fold change,[1]; gene POTEB,7.70
same,Fold change,[1]; gene POTED,6.82
same,Fold change,[1]; gene PPARG,7.30
same,Fold change,[1]; gene RAMP1,5.82
same,Fold change,[1]; gene RAMP3,7.25
same,Fold change,[1]; gene RGS22,7.22
same,Fold change,[1]; gene RP86KA3,7.84
same,Fold change,[1]; gene S100A14,6.73
same,Fold change,[1]; gene SALL4,6.60
same,Fold change,[1]; gene SDR42E1,8.01
same,Fold change,[1]; gene SERPINA5,5.87
same,Fold change,[1]; gene SLC6A14,8.73
same,Fold change,[1]; gene SLC7A2,8.32
same,Fold change,[1]; gene SLC27A6,8.00
same,Fold change,[1]; gene SNX7,7.48
same,Fold change,[1]; gene SOX3,6.52
same,Fold change,[1]; gene SPANXA1,6.68
same,Fold change,[1]; gene SPANXB2,6.55
same,Fold change,[1]; gene ST8SIA4,6.99
same,Fold change,[1]; gene TFPI2,6.82
same,Fold change,[1]; gene THBD,5.97
same,Fold change,[1]; gene TLR2,5.74
same,Fold change,[1]; gene TMEM26,6.66
same,Fold change,[1]; gene TMEM64,6.46
same,Fold change,[1]; gene TMEM150C,7.57
same,Fold change,[1]; gene TOX2,6.29
same,Fold change,[1]; gene TPM4,7.60
same,Fold change,[1]; gene TSPYL5,9.50
same,Fold change,[1]; gene UGT1A6,5.78
same,Fold change,[1]; gene UGT1A8,6.60
same,Fold change,[1]; gene WISP2,6.73
same,Fold change,[1]; gene XIST,8.53
same,Fold change,[1]; gene ZNF618,6.39
